{"source": "patent US6762172B1", "about": "“Water-stabilized organosilane compounds and methods for using the same” (Nova Biogenetics, Inc., priority 1997, dated 2004)", "origin": "cited, not measured here", "settings": "mixture with water, non-stabilized", "data": [{"smiles": "CCCCCCCCCCCCCCCCCC[N+](C)(C)CCC[Si](OC)(OC)OC.[Cl-]", "note": "[3-(trimethoxysilyl)propyl-dimethyloctadecyl ammonium chloride]", "values": [{"measurement": "begins to lose effectiveness", "result": "four to eight"}]}]}
